Earlier results on two compounds are cited in patent US20210137903A1, “ANTI-ANDROGENS FOR THE TREATMENT OF PROSTRATE CANCER” (priority 2019, published 2021).

SMILES strings stand for the structures.

Series [1] addresses AR (Homo sapiens, UniProt P10275). Particulars: cited from earlier work.
The target in series [2] is T1, T877A AR mutant (Homo sapiens, UniProt P10275, T878A).
T1 sequence (P10275 1-920 T878A): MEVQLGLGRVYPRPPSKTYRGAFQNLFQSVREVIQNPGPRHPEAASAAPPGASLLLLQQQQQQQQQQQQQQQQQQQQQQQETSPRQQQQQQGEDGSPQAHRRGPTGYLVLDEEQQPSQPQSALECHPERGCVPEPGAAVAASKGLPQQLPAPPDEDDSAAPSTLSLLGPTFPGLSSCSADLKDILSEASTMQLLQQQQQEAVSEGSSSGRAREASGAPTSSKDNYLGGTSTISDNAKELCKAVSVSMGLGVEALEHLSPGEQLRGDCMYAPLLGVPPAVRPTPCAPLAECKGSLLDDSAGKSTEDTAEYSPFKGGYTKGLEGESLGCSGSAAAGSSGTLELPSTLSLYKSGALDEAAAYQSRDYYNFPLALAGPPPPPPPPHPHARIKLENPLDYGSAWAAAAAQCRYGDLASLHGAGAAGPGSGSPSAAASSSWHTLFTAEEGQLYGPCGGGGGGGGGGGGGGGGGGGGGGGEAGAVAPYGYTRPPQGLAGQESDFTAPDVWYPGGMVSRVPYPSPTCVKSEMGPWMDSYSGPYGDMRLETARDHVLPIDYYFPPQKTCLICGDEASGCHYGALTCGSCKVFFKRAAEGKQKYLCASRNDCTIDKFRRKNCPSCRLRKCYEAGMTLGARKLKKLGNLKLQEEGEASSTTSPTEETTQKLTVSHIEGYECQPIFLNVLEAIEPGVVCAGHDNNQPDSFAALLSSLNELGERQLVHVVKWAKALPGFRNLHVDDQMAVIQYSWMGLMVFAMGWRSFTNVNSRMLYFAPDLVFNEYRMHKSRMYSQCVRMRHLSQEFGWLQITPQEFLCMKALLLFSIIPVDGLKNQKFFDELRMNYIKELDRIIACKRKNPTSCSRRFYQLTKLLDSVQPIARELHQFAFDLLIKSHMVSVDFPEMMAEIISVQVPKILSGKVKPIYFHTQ
Particulars: cited from earlier work.

AR, sequence (P10275 whole entry): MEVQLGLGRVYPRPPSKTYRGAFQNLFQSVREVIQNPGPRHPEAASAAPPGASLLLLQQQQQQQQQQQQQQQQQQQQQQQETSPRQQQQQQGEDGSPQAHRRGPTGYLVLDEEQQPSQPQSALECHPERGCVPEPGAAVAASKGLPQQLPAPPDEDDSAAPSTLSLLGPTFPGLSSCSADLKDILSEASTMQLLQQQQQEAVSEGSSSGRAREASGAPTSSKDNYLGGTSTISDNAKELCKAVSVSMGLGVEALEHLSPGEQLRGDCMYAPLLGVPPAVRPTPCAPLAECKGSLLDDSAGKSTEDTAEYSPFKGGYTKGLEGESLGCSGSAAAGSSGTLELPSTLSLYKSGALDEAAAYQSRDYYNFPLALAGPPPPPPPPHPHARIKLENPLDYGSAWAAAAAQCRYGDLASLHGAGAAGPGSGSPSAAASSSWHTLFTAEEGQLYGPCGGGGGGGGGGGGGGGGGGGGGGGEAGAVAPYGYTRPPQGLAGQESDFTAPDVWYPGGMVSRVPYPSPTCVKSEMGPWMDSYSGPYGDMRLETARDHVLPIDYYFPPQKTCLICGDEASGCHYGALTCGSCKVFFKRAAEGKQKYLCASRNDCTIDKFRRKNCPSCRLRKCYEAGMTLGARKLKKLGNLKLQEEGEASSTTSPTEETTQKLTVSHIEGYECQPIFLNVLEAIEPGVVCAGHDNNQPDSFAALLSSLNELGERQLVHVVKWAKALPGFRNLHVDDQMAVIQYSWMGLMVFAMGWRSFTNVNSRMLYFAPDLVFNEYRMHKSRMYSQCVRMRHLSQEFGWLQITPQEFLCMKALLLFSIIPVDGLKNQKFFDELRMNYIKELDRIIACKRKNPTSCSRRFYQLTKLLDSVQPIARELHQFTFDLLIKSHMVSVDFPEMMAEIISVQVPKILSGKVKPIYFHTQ

On to `CC(O)c1cc(C(=O)N[C@@H](C)Cn2ccc(-c3ccc(C#N)c(Cl)c3)n2)[nH]n1` (some centres unmarked) [Darolutamide], for which, in series [1], the “affinity of binding to AR” value is given as “high affinity”.

For `CC(C)(O)C(=O)Nc1ccc([N+](=O)[O-])c(C(F)(F)F)c1` [hydroxyflutamide], the AR agonist activity entry in series [2] is on record as “act as AR agonists”.
